Assay results: US6165493A, “"Methods and compositions for decreasing the frequency of HIV, herpesvirus and sexually transmitted bacterial infections"” (New York Blood Center, Inc., priority 1998, dated 2000)
Peptide text beside a SMILES is read from it.

System: HIV-1
Assay: not given
Details: cited from earlier work

Compound	in vitro inactivation of HIV-1
nonoxynol-9 [N-9]	shown to inactivate in vitro

System: HIV-1
Assay: disintegration of HIV-1 measured by release of p24
Design: species or system HIV-1 IIIB
Details: 5 minutes at 37° C.
Experimental: With respect of FIG. 3, serial dilutions of untreated and treated HIV-1 were tested for p24 by ELISA. As a positive control, HIV-1 treated with the detergent NP40 was also tested. The results obtained with the "[…]"-glycerol formulation containing PVP and Crospovidone and N-40 were identical and indicated an 100-fold increase of released p24 antigen, as compared to background levels corresponding to untreated virus. The infectivity of HIV-1 was also eliminated by treatment with the "[…]"-glycerol formulation containing PVP and Crospovidone.
To determine whether or not the CAP Formulations affect the integrity of HIV-1, a preparation of purified virus (strain IIIB; 5 μl; 1.52×10^10 virus particles/ml; Advanced Biotechnologies, Columbia, Md.) was mixed with 45 μl of 0.14 M NaCl and 50 μl of the respective CAP Formulation, each prewarmed to 37° C. After 5 minutes at 37° C., 400 μl of 0.14 M NaCl were added, and the mixture was filtered through a 0.45μ filter prewashed with 0.14 M NaCl, 0.01 M Tris pH 7.2, 0.02 NaN3 (TS). Serial 5-fold dilutions of the filtrate were tested by ELISA for the p24 antigen, as described above. In control experiments, either untreated HIV-1 IIIB or virus treated with the detergent NP40 (final concentration 5 mg/ml; 5 minutes at 37° C.) were equally diluted and tested for the p24 antigen. […]

Compound	increase of released p24 antigen compared to untreated virus [fold]
NP40	100

System: not given
Assay: not given
Details: some N-9 formulations; cited from earlier work

Compound	clinical adverse effects
nonoxynol-9 [N-9]	adverse effects

System: Chlamydia trachomatis
Assay: not given
Details: cited from earlier work

Compound	in vitro inactivation of Chlamydia trachomatis
nonoxynol-9 [N-9]	shown to inactivate in vitro

System: HIV-1
Assay: inhibition of fusion between HIV-1 IIIB infected H9 cells and uninfected MT-2 cells
Format: cell-based
Details: Human immunodeficiency virus 1, MT2, 1 h, read-out: Inhibition of Cell Fusion ED50 ± SD (effective dose for 50% inhibition of HIV-1 induced cell fusion); Table 1A; -- = none at 1000 μg/ml

Compound	IC50 [µg/mL]
CCOC(=O)c1ccc(O)cc1 [Ethylparaben]	> 1000
CCCCCCCCCCCCCCCC(=O)OC[C@H](O)[C@H]1OC(=O)C(O)=C1O [Ascorbyl Palmitate]	> 1000
CC(=O)OCC(COC(C)=O)OC(C)=O [Triacetin]	> 1000
CCCOC(=O)c1cc(O)c(O)c(O)c1 [Propyl Gallate]	> 1000
CCCCOC(=O)CCCCCCCCC(=O)OCCCC [Dibutyl Sebacate]	> 1000
CC1COC(=O)O1 (centres unmarked) [Propylene Carbonate]	> 1000
O=C(OCc1ccccc1)c1ccccc1 [Benzyl Benzoate]	> 1000
COC(=O)c1ccc(O)cc1 [Methylparaben]	> 1000
Cc1occc(=O)c1O [Maltol]	> 1000
C/C=C/C=C/C(=O)O [Sorbic Acid]	> 1000
CC1=CC(=O)NS(=O)(=O)O1 [Acesulfame Potassium]	> 1000
CCCCCCCCCCCCCCCCCCOC(=O)/C=C/C(=O)[O-].[Na+] [Sodium Stearyl Fumarate]	> 1000
Cc1cc(O)ccc1Cl [Chlorocresol]	> 1000
O=S(=O)(O)NC1CCCCC1 [Sodium Cyclamate]	> 1000
COC(=O)[C@H](Cc1ccccc1)NC(=O)[C@@H](N)CC(=O)O [Aspartame] (HELM PEPTIDE1{D.F.[CO[*:1]]}$$$$V2.0)	> 1000
CC1CCC(C(C)C)C(O)C1 (centres unmarked) [Menthol]	> 1000
O=C(NCNC(=O)NC1C(=O)NC(=O)N1CO)NC1C(=O)NC(=O)N1CO (centres unmarked) [Imidurea]	> 1000
O=[N+]([O-])C(Br)(CO)CO [Bronopol]	> 1000
CCCOC(=O)c1ccc(O)cc1 [Propylparaben]	> 1000
Cc1cc(C(C)(C)C)c(O)c(C(C)(C)C)c1 [Butylated Hydroxytoluene]	> 1000
CCCCOC(=O)c1ccc(O)cc1 [Butylparaben]	> 1000
COc1cc(C=O)ccc1O [Vanillin]	> 1000
O=C1NS(=O)(=O)c2ccccc21 [Saccharin]	> 1000

System: heterosexual HIV-1, gonorrhea and chlamydia transmission
Assay: not given
Details: one of the N-9 formulations; cited from earlier work

Compound	efficacy in decreasing rate of heterosexual HIV-1, gonorrhea and chlamydia transmission
nonoxynol-9 [N-9]	lack of efficacy

System: HSV-2
Assay: not given
Details: cited from earlier work

Compound	in vitro inactivation of HSV-2
nonoxynol-9 [N-9]	shown to inactivate in vitro
